The structures appear in SMILES notation. Numbered stars: 1 amine (or outer) side, 2 acyl side, 3 side chain; on linkers, the order of the positions; unused ones are H or OH. Bridge positions count the residues as written; N and C are the ends. Square brackets hold non-standard residues; d marks the D form. Side chains are listed from the residue outwards. Peptide text beside a SMILES is read from it. * marks the point of attachment. C18 diacid = O=C(O)CCCCCCCCCCCCCCCCC(=O)*; γGlu = O=C(O)[C@H](CCC(=O)[*:2])N[*:1]; Dab = NCC[C@H](N)C(=O)O; Aib = CC(C)(N)C(=O)O

Assay [1] deals with T1, human calcitonin receptor (hCTR) (Homo sapiens, UniProt P30988).
T1 construct: expressed in transfected cells
T1 sequence (P30988 25-474): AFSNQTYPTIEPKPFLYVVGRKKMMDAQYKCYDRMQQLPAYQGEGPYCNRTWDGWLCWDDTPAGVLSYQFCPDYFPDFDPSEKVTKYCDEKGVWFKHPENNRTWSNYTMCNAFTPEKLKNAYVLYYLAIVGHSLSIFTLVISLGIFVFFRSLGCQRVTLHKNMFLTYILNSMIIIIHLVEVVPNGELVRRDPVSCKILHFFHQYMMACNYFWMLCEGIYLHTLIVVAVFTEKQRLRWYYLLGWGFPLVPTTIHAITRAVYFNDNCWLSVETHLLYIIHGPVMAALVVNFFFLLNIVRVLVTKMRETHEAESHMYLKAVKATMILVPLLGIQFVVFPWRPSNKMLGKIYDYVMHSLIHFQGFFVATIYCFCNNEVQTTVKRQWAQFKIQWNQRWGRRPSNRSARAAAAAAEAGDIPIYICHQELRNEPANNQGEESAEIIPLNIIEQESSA
Kind of assay: cAMP production in 1321N1 cells with stable recombinant expression of human calcitonin receptor (hCTR). In kind it is cell-based. The following applies: cAMP, 1321N1 cells, assay buffer with 0.1% BSA; read-out: EC50 (pM) hCTR. In short, it runs like this: (§1)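 Receptor-expressing cells (human receptors in 1321N1, rat receptors in HEK) incubated 30 min at room temperature with peptide in HBSS/HEPES pH 7.4, 0.1% BSA, 0.5 mM IBMX. cAMP read by HTRF; EC50 from 4-parameter fit as % of maximal amylin or calcitonin response.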

In assay [2] the target is T2, human amylin receptor (calcitonin receptor co-expressed with receptor activity modifying protein, RAMP3) (hAMYR3) (Homo sapiens, UniProt O60896+P30988).
T2 construct: expressed in transfected cells
T2 sequence (P30988 25-474): T1 sequence (P30988 25-474)
T2 sequence (O60896 24-148 partner): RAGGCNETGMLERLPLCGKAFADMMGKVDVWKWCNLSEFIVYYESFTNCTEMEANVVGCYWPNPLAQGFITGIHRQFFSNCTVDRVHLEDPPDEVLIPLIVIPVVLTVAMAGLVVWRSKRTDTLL
Kind of assay: cAMP production in 1321N1 cells with stable recombinant expression of human amylin receptor (hAMYR3). It counts as cell-based. The following applies: for Ratio (selectivity hAMYR vs hCTR, ratio of EC50 values at the two receptors): EC50 hCTR / EC50 hAMYR3; for EC50: cAMP, 1321N1 cells, assay buffer with 0.1% BSA, read-out: EC50 (pM) hAMYR3. In short, it runs like this: as §1

Consider `CC[C@H](C)[C@H](NC(=O)[C@@H]1CCCN1C(=O)CNC(=O)[C@H](Cc1ccccc1)NC(=O)[C@H](CC(N)=O)NC(=O)[C@H](CC(N)=O)NC(=O)[C@H](CO)NC(=O)[C@H](CO)NC(=O)[C@H](Cc1c[nH]cn1)NC(=O)C(C)(C)NC(=O)[C@H](CC(C)C)NC(=O)[C@H](Cc1ccccc1)NC(=O)[C@H](Cc1c[nH]cn1)NC(=O)[C@H](C)NC(=O)[C@H](CC(C)C)NC(=O)[C@H](CCCNC(=N)N)NC(=O)[C@H](CCC(N)=O)NC(=O)[C@@H](NC(=O)[C@H](C)NC(=O)[C@@H]1CSSC[C@H](NC(=O)[C@@H](N)CCCCNC(=O)CC[C@H](NC(=O)CCCCCCCCCCCCCCCCC(=O)O)C(=O)O)C(=O)N[C@@H](CC(N)=O)C(=O)N[C@@H]([C@@H](C)O)C(=O)N[C@@H](C)C(=O)N[C@@H]([C@@H](C)O)C(=O)N1)[C@@H](C)O)C(=O)N[C@@H](CC(C)C)C(=O)N1CCC[C@H]1C(=O)N1CCC[C@H]1C(=O)N[C@H](C(=O)N[C@@H](CC(N)=O)C(=O)N[C@H](C(=O)NCC(=O)N[C@@H](CO)C(=O)N[C@@H](CC(N)=O)C(=O)N[C@H](C(=O)N[C@@H](Cc1ccc(O)cc1)C(N)=O)[C@@H](C)O)C(C)C)[C@@H](C)O` [Peptide 144] (H-K([γGlu-C18 diacid])CNTATCATQRLAHFL[Aib]HSSNNFGPILPPTNVGSNTY-NH2; disulfide 2-7; N-terminus assumed), for which the EC50 in assay [1] is 725 pM. In assay [2], the “Ratio (selectivity hAMYR vs hCTR, ratio of EC50 values at the two receptors)” value was 5.3 and the EC50 came to 138 pM.

With `CC(C)C[C@H](NC(=O)[C@H](CCCNC(=N)N)NC(=O)[C@H](CCC(N)=O)NC(=O)[C@@H](NC(=O)[C@H](C)NC(=O)[C@@H]1CSSC[C@H](NC(=O)[C@H](CCCCN)NC(=O)[C@@H](N)CCCCNC(=O)CC[C@H](NC(=O)CCCCCCCCCCCCCCCCC(=O)O)C(=O)O)C(=O)N[C@@H](CC(N)=O)C(=O)N[C@@H]([C@@H](C)O)C(=O)N[C@@H](C)C(=O)N[C@@H]([C@@H](C)O)C(=O)N1)[C@@H](C)O)C(=O)N[C@@H](C)C(=O)N[C@@H](CC(N)=O)C(=O)N[C@@H](Cc1ccccc1)C(=O)N[C@@H](CC(C)C)C(=O)N[C@H](C(=O)N[C@@H](Cc1c[nH]cn1)C(=O)N[C@@H](CO)C(=O)N[C@@H](CO)C(=O)N[C@@H](CC(N)=O)C(=O)N[C@@H](CC(N)=O)C(=O)N[C@@H](Cc1ccccc1)C(=O)NCC(=O)N1CCC[C@H]1C(=O)NC(C)(C)C(=O)N[C@@H](CC(C)C)C(=O)N1CCC[C@H]1C(=O)N1CCC[C@H]1C(=O)N[C@H](C(=O)N[C@@H](CC(N)=O)C(=O)N[C@H](C(=O)NCC(=O)N[C@@H](CO)C(=O)N[C@@H](CC(N)=O)C(=O)N[C@H](C(=O)N[C@@H](Cc1ccc(O)cc1)C(N)=O)[C@@H](C)O)C(C)C)[C@@H](C)O)C(C)C` [Peptide 106, K(γE-C18diacid)K[CNTATC]ATQRLANFLVHSSNNFGP(Aib)LPPTNVGSNTY-amide] (H-K([γGlu-C18 diacid])KCNTATCATQRLANFLVHSSNNFGP[Aib]LPPTNVGSNTY-NH2; disulfide 3-8; N-terminus assumed), in assay [1], the concentration for a half-maximal effect (EC50) stood at 3420 pM. In assay [2], the “Ratio (selectivity hAMYR vs hCTR, ratio of EC50 values at the two receptors)” value was 7 and the EC50 is 473 pM.

Turning to `CC[C@H](C)[C@H](NC(=O)[C@@H]1CCCN1C(=O)CNC(=O)[C@H](Cc1ccccc1)NC(=O)[C@H](CC(N)=O)NC(=O)[C@H](CC(N)=O)NC(=O)[C@H](CO)NC(=O)[C@H](CO)NC(=O)[C@H](Cc1c[nH]cn1)NC(=O)[C@@H](NC(=O)[C@H](CC(C)C)NC(=O)[C@H](Cc1ccccc1)NC(=O)[C@H](CC(N)=O)NC(=O)[C@H](C)NC(=O)[C@H](CC(C)C)NC(=O)[C@H](CCCNC(=N)N)NC(=O)[C@H](CCC(N)=O)NC(=O)[C@@H](NC(=O)[C@H](C)NC(=O)[C@@H]1CSSC[C@H](NC(=O)[C@H](CCCCN)NC(=O)[C@@H](N)CCCCNC(=O)CC[C@H](NC(=O)CCCCCCCCCCCCCCCCC(=O)O)C(=O)O)C(=O)N[C@@H](CC(N)=O)C(=O)N[C@@H]([C@@H](C)O)C(=O)N[C@@H](C)C(=O)N[C@@H]([C@@H](C)O)C(=O)N1)[C@@H](C)O)C(C)C)C(=O)NC(C)(C)C(=O)N1CCC[C@H]1C(=O)N1CCC[C@H]1C(=O)N[C@H](C(=O)N[C@@H](CC(N)=O)C(=O)N[C@H](C(=O)NCC(=O)N[C@@H](CO)C(=O)N[C@@H](CC(N)=O)C(=O)N[C@H](C(=O)N[C@@H](Cc1ccc(O)cc1)C(N)=O)[C@@H](C)O)C(C)C)[C@@H](C)O` [Peptide 108, K(γE-C18diacid)K[CNTATC]ATQRLANFLVHSSNNFGPI(Aib)PPTNVGSNTY-amide] (H-K([γGlu-C18 diacid])KCNTATCATQRLANFLVHSSNNFGPI[Aib]PPTNVGSNTY-NH2; disulfide 3-8; N-terminus assumed), the EC50 in assay [1] came out at 6810 pM. Besides, in assay [2], the “Ratio (selectivity hAMYR vs hCTR, ratio of EC50 values at the two receptors)” value is 8 and the EC50 worked out at 801 pM.

Consider `CC[C@H](C)[C@H](NC(=O)[C@@H]1CCCN1C(=O)CNC(=O)[C@H](Cc1ccccc1)NC(=O)[C@H](CC(N)=O)NC(=O)[C@H](CCN)NC(=O)[C@H](CO)NC(=O)[C@H](CO)NC(=O)[C@H](Cc1c[nH]cn1)NC(=O)C(C)(C)NC(=O)[C@H](CC(C)C)NC(=O)[C@H](Cc1ccccc1)NC(=O)[C@H](CC(N)=O)NC(=O)[C@H](C)NC(=O)[C@H](CC(C)C)NC(=O)[C@H](CCCNC(=N)N)NC(=O)[C@H](CCC(N)=O)NC(=O)[C@@H](NC(=O)[C@H](C)NC(=O)[C@@H]1CSSC[C@H](NC(=O)[C@H](CCCCN)NC(=O)[C@@H](N)CCCCNC(=O)CC[C@H](NC(=O)CCCCCCCCCCCCCCCCC(=O)O)C(=O)O)C(=O)N[C@@H](CC(N)=O)C(=O)N[C@@H]([C@@H](C)O)C(=O)N[C@@H](C)C(=O)N[C@@H]([C@@H](C)O)C(=O)N1)[C@@H](C)O)C(=O)N[C@@H](CC(C)C)C(=O)N1CCC[C@H]1C(=O)N1CCC[C@H]1C(=O)N[C@H](C(=O)N[C@@H](CCC(=O)O)C(=O)N[C@H](C(=O)NCC(=O)N[C@@H](CO)C(=O)N[C@@H](CC(N)=O)C(=O)N[C@H](C(=O)N[C@@H](Cc1ccc(O)cc1)C(N)=O)[C@@H](C)O)C(C)C)[C@@H](C)O` [Peptide 30, K(γE-C18diacid)K[CNTATC]ATQRLANFL(Aib)HSS(Dab)NFGPILPPTEVGSNTY-amide] (H-K([γGlu-C18 diacid])KCNTATCATQRLANFL[Aib]HSS[Dab]NFGPILPPTEVGSNTY-NH2; disulfide 3-8; N-terminus assumed), for which, in assay [1], the 50% effective concentration (EC50) came to 10500 pM. In addition, in assay [2], the “Ratio (selectivity hAMYR vs hCTR, ratio of EC50 values at the two receptors)” value stood at 12 and the EC50 is 873 pM.
